The target in assay [1] is cGMP-specific 3',5'-cyclic phosphodiesterase (Homo sapiens, UniProt O76074). The experiment in a line: ChEBML_217497. Here is the method: Inhibition of human lung high-affinity cGMP phosphodiesterases (0.5-2 uM/L)
Assay [2] addresses cGMP-dependent 3',5'-cyclic phosphodiesterase (Homo sapiens, UniProt O00408). The experiment in a line: ChEBML_217498. As to the method:
Inhibition of human lung low-affinity cGMP phosphodiesterases (10-50 uM/L)

Molecules are shown by their SMILES.

Sequence of cGMP-dependent 3',5'-cyclic phosphodiesterase (O00408 whole entry): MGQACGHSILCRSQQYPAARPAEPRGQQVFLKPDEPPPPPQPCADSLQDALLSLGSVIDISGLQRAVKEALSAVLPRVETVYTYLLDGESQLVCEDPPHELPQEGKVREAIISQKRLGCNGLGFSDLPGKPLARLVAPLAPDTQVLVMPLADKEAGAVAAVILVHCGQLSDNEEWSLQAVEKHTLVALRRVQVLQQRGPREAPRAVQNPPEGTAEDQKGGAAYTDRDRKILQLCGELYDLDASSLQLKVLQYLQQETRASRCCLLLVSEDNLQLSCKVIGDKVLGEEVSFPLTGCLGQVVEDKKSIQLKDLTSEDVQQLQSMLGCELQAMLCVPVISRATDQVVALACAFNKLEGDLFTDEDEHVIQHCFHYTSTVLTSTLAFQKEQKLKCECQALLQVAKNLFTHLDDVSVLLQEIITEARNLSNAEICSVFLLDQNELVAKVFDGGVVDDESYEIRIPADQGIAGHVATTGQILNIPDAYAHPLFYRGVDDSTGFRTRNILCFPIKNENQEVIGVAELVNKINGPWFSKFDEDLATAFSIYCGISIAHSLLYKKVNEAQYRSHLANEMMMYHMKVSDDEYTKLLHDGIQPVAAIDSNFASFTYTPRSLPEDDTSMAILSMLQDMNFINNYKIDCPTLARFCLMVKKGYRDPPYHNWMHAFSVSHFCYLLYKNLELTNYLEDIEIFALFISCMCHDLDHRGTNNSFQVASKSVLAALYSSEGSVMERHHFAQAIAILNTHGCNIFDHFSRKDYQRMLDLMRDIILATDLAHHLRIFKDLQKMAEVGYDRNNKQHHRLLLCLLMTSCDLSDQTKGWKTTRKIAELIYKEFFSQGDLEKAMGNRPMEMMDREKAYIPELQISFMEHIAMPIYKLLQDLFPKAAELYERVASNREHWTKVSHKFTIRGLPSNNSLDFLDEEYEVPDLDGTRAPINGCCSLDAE

Usually Ki stands for a measure of affinity in units of concentration, obtained from inhibition or displacement. Low readings indicate a stronger hold on the target, high ones a looser hold on the target. Turning to `CC(O)Cn1cnc2c1c(=O)n(C)c(=O)n2C` (stereo unspecified) [7-(2-Hydroxy-propyl)-1,3-dimethyl-3,7-dihydro-purine-2,6-dione(Proxyphylline)], the Ki in assay [1] and in assay [2] was 600 µM in each case.

Turning to `C[C@@H](O)Cn1cnc2c1c(=O)n(C)c(=O)n2C` [(R)-7-(2-hydroxypropyl)-1,3-dimethyl-1H-purine-2,6(3H,7H)-dione], the Ki in assay [1] and in assay [2] was 600 µM throughout.

Turning to `C[C@H](O)Cn1cnc2c1c(=O)n(C)c(=O)n2C` [(S)-7-(2-hydroxypropyl)-1,3-dimethyl-1H-purine-2,6(3H,7H)-dione], the Ki in assay [1] is 600 µM; in assay [2] it was 700 µM.

Source of the values: BindingDB's records for doi:10.1021/jm00364a029 (1983).
